We go through three compounds from patent US8415289B2, “Bacterial-derived BLIS for treatment of acne” (The Trustees of the University of Pennsylvania, priority 2005, dated 2013).

This test concerns S. salivarius. The experiment in a line: Etest MIC susceptibility of clinical S. salivarius isolates to antibiotics. It counts as cell-based, Streptococcus salivarius. The protocol: The dorsum of the tongue was swabbed and the specimen collected using a BBL CultureSwab Collection and Transport System (Difco, Detroit, Mich.). The sterile cotton stick was drawn across the dorsum of the tongue 10-12 times while maintaining pressure. Swabs were stored at 4° C. for no more than 24 h. Cultures were diluted 10 and 100-fold using Tryptic Soy Broth (Difco, Detroit, Mich.), and diluted cultures directly inoculated on mitis-salivarius agar (Difco, Detroit, Mich.) using sterile technique. Plates were incubated upside down at 37° C. in 5% carbon dioxide for 24 h. Colonies were screened by morphology consistent with S. salivarius (large, soft, fluffy colonies due to levan production from the sucrose in the agar). This is the standard method used to screen for S. salivarius (24;24). All samples identified based on visual morphology were frozen and stored for subsequent testing (BLIS assays and resistance testing).
Colonies identified as S. salivarius by morphology were tested for susceptibility to clindamycin, erythromycin and tetracycline using the Etest MIC method. Etest strips were purchased from AB Biodisk (Piscataway, N.J., USA), and were used in accordance with the manufacturer's instructions. The concentration gradient of each antimicrobial agent on the Etest strips was 0.016-256 ug/ml. MICs were read directly from the test strip where the zone of inhibition intersected the MIC scale on the strip. Zones of inhibition were compared with standard values (NCCLS M100-S10) to assign a designation of “susceptible,” “intermediate”, or “resistant” to each antimicrobial agent.
Secondarily, determination was made as to whether the S. salivarius recovered was resistant to clindamycin, erythromycin, and tetracycline. Chi-squared analyses were performed to detect a difference among Groups Ia, Ib, and II. We further stratified the acne patients into those receiving oral and/or topical antibiotics, and no antibiotics. These findings were represented as simple percentages, allowing for qualitative comparisons among these groups. […] This accounts for the discrepancy between the numerators in Table 2 and the denominators in Table 3.

The mark [1] stands for this setting: Group II: no acne, no antibiotics, 15 isolates, NCCLS M100-S10.
[2] abbreviates: Group Ia: acne, using antibiotics, 13 isolates, NCCLS M100-S10.
[3] abbreviates: Group Ib: acne, not using antibiotics, 5 isolates, NCCLS M100-S10.

Regarding `CN(C)[C@@H]1C(O)=C(C(N)=O)C(=O)[C@@]2(O)C(O)=C3C(=O)c4c(O)cccc4[C@@](C)(O)[C@H]3C[C@@H]12` [Tetracycline, tetracycline], the “Proportion of antibiotic-resistant Streptococcus salivarius in the oropharynx” value (“Proportion” for short) is 4/15 (27%) under setting [1]; 27% (Group II: no acne, no antibiotics, 15 isolates, NCCLS M100-S10, listed as tetracycline); 10/13 (77%) under setting [2]; 77% (Group Ia: acne, using antibiotics, 13 isolates, NCCLS M100-S10, listed as tetracycline); 2/5 (40%) under setting [3]; 40% (Group Ib: acne, not using antibiotics, 5 isolates, NCCLS M100-S10, listed as tetracycline).
In the case of `CCC[C@@H]1C[C@@H](C(=O)N[C@@H]([C@H]2O[C@H](SC)[C@H](O)[C@@H](O)[C@H]2O)[C@H](C)Cl)N(C)C1` [Clindamycin, clindamycin], the “Proportion” value under setting [1] was 1/15 (7%); the “Proportion” value (Group II: no acne, no antibiotics, 15 isolates, NCCLS M100-S10, listed as clindamycin) is given as 7%; the “Proportion” value under setting [2] is 9/13 (69%); the “Proportion” value (Group Ia: acne, using antibiotics, 13 isolates, NCCLS M100-S10, listed as clindamycin) was 69%; the “Proportion” value under setting [3] is recorded as 1/5 (20%); the “Proportion” value (Group Ib: acne, not using antibiotics, 5 isolates, NCCLS M100-S10, listed as clindamycin) is 20%.
For the compound `CC[C@H]1OC(=O)[C@H](C)[C@@H](O[C@H]2C[C@@](C)(OC)[C@@H](O)[C@H](C)O2)[C@H](C)[C@@H](O[C@@H]2O[C@H](C)C[C@H](N(C)C)[C@H]2O)[C@](C)(O)C[C@@H](C)C(=O)[C@H](C)[C@@H](O)[C@]1(C)O` [Erythromycin, erythromycin], the “Proportion” value reads like this: under setting [1], 3/15 (20%); (Group II: no acne, no antibiotics, 15 isolates, NCCLS M100-S10, listed as erythromycin) 20%; under setting [2], 9/13 (69%); (Group Ia: acne, using antibiotics, 13 isolates, NCCLS M100-S10, listed as erythromycin) 69%; under setting [3], 2/5 (40%); (Group Ib: acne, not using antibiotics, 5 isolates, NCCLS M100-S10, listed as erythromycin) 40%.
